In patent publication US10787444B2, “Compounds for the modulation of myc activity” (Syros Pharmaceuticals, Inc., priority 2015, dated 2020):
Where a name gives a salt, the structure may show the parent alone. Read-outs that look alike come from different tables or passages of the source.

Assays:
c-Myc/Max/Ebox DNA = target: T1, c-Myc/Max/Ebox DNA (Homo sapiens, UniProt P01106); experiment: c-Myc/Max/Ebox DNA AlphaScreen Assay; type: binding; details: calculated IC50 class
T1 construct: his6 (cleaved yes)
T1 sequence (P01106 whole entry): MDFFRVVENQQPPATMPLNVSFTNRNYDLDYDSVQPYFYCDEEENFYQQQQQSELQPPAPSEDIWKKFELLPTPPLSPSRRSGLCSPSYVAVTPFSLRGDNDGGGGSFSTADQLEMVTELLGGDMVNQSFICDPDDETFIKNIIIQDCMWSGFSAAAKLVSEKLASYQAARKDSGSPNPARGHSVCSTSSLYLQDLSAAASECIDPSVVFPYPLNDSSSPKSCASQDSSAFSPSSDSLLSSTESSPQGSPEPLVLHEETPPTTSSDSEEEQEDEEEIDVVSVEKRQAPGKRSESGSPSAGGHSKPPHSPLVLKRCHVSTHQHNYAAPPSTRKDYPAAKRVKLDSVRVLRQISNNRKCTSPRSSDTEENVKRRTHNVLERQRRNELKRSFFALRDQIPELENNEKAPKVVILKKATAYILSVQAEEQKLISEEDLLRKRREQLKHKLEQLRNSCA
Method in brief: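 Compounds were preincubated with free c-Myc (20 nM), biotinylated single-Ebox DNA (10 nM) and Ni acceptor beads before his6-Max (5 nM) and streptavidin donor beads were added. Buffer was 50 mM HEPES pH 8.0, 150 mM NaCl, BSA, Tween20, glycogen and DTT, with DMSO ≤2%. After 2 h incubation, AlphaScreen signal was read at 680 nm excitation and 520–620 nm emission.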

[1] = test system: human small lung cancer cell line H2171; experiment: Cell Viability Assay (ATPlite); type: cell-based; details: H2171 cells, three days, ATPlite, calculated IC50 class, read-out: H2171 Activity
Method in brief: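 H2171 cells were plated at 20,000 cells/mL and dosed immediately by pin transfer with a 10-point dose series in DMSO. After three days at 37° C, ATPlite luminescence served as the viability readout.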

[2] = Homo sapiens, NCI-H2171, 72 h, Table 2, compounds of FIG. 1
[3] = Homo sapiens, NCI-H2171, 72 h, Table 3, compounds of FIG. 2

| Structure (SMILES) | IC50 (c-Myc/Max/Ebox DNA; Table 2, compounds of FIG. 1) [nM] | IC50 [1, 2] [nM] | IC50 ([1]; Table 2, compounds of FIG. 1) [nM] | IC50 (c-Myc/Max/Ebox DNA; Table 3, compounds of FIG. 2) [nM] | IC50 [1, 3] [nM] |
| --- | --- | --- | --- | --- | --- |
| CC(C)N1CCc2c(sc(NC(=O)CCNCc3cnn(C)c3)c2-c2nc3ccccc3s2)C1 [Compound 100, N-(3-(benzo[d]thiazol-2-yl)-6-isopropyl-4,5,6,7-tetrahydrothieno[2,3-c]pyridin-2-yl)-3-(((1-methyl-1H-pyrazol-4-yl)methyl)amino)propanamide] | 300 to 1000 | < 300 |  |  |  |
| CC[C@@H](C)NCCC(=O)Nc1sc2c(c1-c1nc3cc(C(F)(F)F)ccc3s1)CCN(C(C)C)C2 [Compound 574, (R)-3-(sec-butylamino)-N-(6-isopropyl-3-(5-(trifluoromethyl)benzo[d]thiazol-2-yl)-4,5,6,7-tetrahydrothieno[2,3-c]pyridin-2-yl)propanamide] | < 300 | < 300 |  |  |  |
| CC(C)NCCC(=O)Nc1sc2c(c1-c1nc3ccccc3s1)CC(C)NC2C (single isomer, unassigned) [Compound 196, N-(3-(benzo[d]thiazol-2-yl)-5,7-dimethyl-4,5,6,7-tetrahydrothieno[2,3-c]pyridin-2-yl)-3-(isopropylamino)propanamide] | 300 to 1000 | < 300 |  |  |  |
| CC(=O)Nc1sc2c(c1-c1nc3cc(N(C)C)ccc3s1)CCNC2 [Compound 230, N-(3-(5-(dimethylamino)benzo[d]thiazol-2-yl)-4,5,6,7-tetrahydrothieno[2,3-c]pyridin-2-yl)acetamide] |  |  |  | 1000 to 10000 | > 10000 |
| CC(=O)Nc1sc2c(c1-c1nc3ccc(C)cc3s1)CCNC2 [Compound 224, N-(3-(6-methylbenzo[d]thiazol-2-yl)-4,5,6,7-tetrahydrothieno[2,3-c]pyridin-2-yl)acetamide] |  |  |  | 300 to 1000 | > 10000 |
| CC[C@H](C)NCCC(=O)Nc1sc2c(c1-c1nc3ccccc3s1)CC(C)NC2C (single isomer, unassigned) [Compound 624] | < 300 |  | < 300 |  |  |
| CC[C@H](C)NCCC(=O)Nc1sc2c(c1-c1nc3cc(C(F)(F)F)ccc3s1)CC(C)NC2C (single isomer, unassigned) [Compound 585] | < 300 |  | < 300 |  |  |
| CC(=O)Nc1sc2c(c1-c1nc3cc4c(cc3s1)OCO4)CCN(C(C)C)C2 [Compound 236, N-(3-([1,3]Dioxolo[4′,5′:4,5]benzo[1,2-d]thiazol-6-yl)-6-isopropyl-4,5,6,7-tetrahydrothieno[2,3-c]pyridin-2-yl)acetamide] |  |  |  | 300 to 1000 | 300 to 1000 |
| CC(C)NCCC(=O)Nc1sc2c(c1-c1nc3cc(NS(C)(=O)=O)ccc3s1)CCNC2 [compound 581] | < 300 | < 300 |  |  |  |
| CC[C@H](C)NCCC(=O)Nc1sc2c(c1-c1nc3cc(C(F)(F)F)ccc3s1)CC(C)NC2C (single isomer, unassigned) [Compound 586] | > 10000 |  | < 300 |  |  |
| CC(C)NCCC(=O)Nc1sc2c(c1-c1nc3cc(C(=O)O)ccc3s1)CCNC2 [Compound 320, 2-(2-(3-(Isopropylamino)propanamido)-4,5,6,7-tetrahydrothieno[2,3-c]pyridin-3-yl)benzo[d]thiazole-5-carboxylic acid] | 300 to 1000 | < 300 |  |  |  |
| CC[C@H](C)NCCC(=O)Nc1sc2c(c1-c1nc3cc(-c4ccncc4)ccc3s1)CCN(C1CCC1)C2 [Compound 595, (S)-3-(sec-butylamino)-N-(6-cyclobutyl-3-(5-(pyridin-4-yl)benzo[d]thiazol-2-yl)-4,5,6,7-tetrahydrothieno[2,3-c]pyridin-2-yl)propanamide] | < 300 | 300 to 1000 |  |  |  |
| CC(=O)Nc1sc2c(c1-c1nc3ccccc3s1)CCC(NC1CCOCC1)C2 (stereo not shown) [Compound 231, N-(3-(benzo[d]thiazol-2-yl)-6-((tetrahydro-2H-pyran-4-yl)amino)-4,5,6,7-tetrahydrobenzo[b]thiophen-2-yl)acetamide] |  |  |  | 1000 to 10000 | < 300 |
| CNCCC(=O)Nc1sc2c(c1-c1nc3ccccc3s1)CCNC2 [Compound 128, N-(3-(benzo[d]thiazol-2-yl)-4,5,6,7-tetrahydrothieno[2,3-c]pyridin-2-yl)-3-(methylamino)propanamide] | < 300 | < 300 |  |  |  |
| Cc1ncsc1-c1ccc(CNC(=O)[C@@H]2C[C@@H](O)CN2C(=O)[C@@H](NC(=O)CCOCCOCCOCCOCCOCCOCCNCCC(=O)Nc2sc3c(c2-c2nc4ccccc4s2)CCNC3)C(C)(C)C)cc1 [Compound 591, N1-(3-(benzo[d]thiazol-2-yl)-4,5,6,7-tetrahydrothieno[2,3-c]pyridin-2-yl)-N25-((S)-1-((2S,4R)-4-hydroxy-2-((4-(4-methylthiazol-5-yl)benzyl)carbamoyl)pyrrolidin-1-yl)-3,3-dimethyl-1-oxobutan-2-yl)-7,10,13,16,19,22-hexaoxa-4-azapentacosanediamide] | > 10000 | < 300 |  |  |  |
| Cc1cn(-c2ccc3nc(-c4c(NC(=O)CCNC(C)C)sc5c4CCNC5)sc3c2)cn1 [compound 186] | < 300 | < 300 |  |  |  |
| CCC(C)NCCC(=O)N(C)c1sc2c(c1-c1nc3ccccc3s1)CCNC2 (stereo not shown) [Compound 301, N-(3-(benzo[d]thiazol-2-yl)-4,5,6,7-tetrahydrothieno[2,3-c]pyridin-2-yl)-3-(sec-butylamino)-N-methylpropanamide] | 1000 to 10000 | 1000 to 10000 |  |  |  |

Now from value to compound:

| IC50 (c-Myc/Max/Ebox DNA; Table 2, compounds of FIG. 1) [nM] | IC50 [1, 2] [nM] | IC50 ([1]; Table 2, compounds of FIG. 1) [nM] | IC50 (c-Myc/Max/Ebox DNA; Table 3, compounds of FIG. 2) [nM] | IC50 [1, 3] [nM] | Structure (SMILES) |
| --- | --- | --- | --- | --- | --- |
| < 300 | < 300 |  |  |  | COCCNCCC(=O)Nc1sc2c(c1-c1nc3cc(-c4cnn(C(C)C)c4)ccc3s1)CCNC2 [compound 465] |
| < 300 | < 300 |  |  |  | COCCNCCC(=O)Nc1sc2c(c1-c1nc3c(-n4cnc(C)c4)cccc3s1)CCNC2 [Compound 592, 3-((2-Methoxyethyl)amino)-N-(3-(4-(4-methyl-1H-imidazol-1-yl)benzo[d]thiazol-2-yl)-4,5,6,7-tetrahydrothieno[2,3-c]pyridin-2-yl)propanamide trihydrochloride] |
| < 300 | < 300 |  |  |  | COCCNCCC(=O)Nc1sc2c(c1-c1nc3cc(-c4cnoc4)ccc3s1)CCNC2 [compound 481] |
| < 300 | < 300 |  |  |  | COCCNCCC(=O)Nc1sc2c(c1-c1nc3ccc(-c4ccc(C#N)nc4)cc3s1)CCNC2 [compound 391] |
| 1000 to 10000 |  | < 300 |  |  | COCCNCCC(=O)Nc1sc2c(c1-c1nc3cc(-c4cnn(C)c4)ccc3s1)CC(C)NC2C (single isomer, unassigned) [Compound 567, N-(5,7-Dimethyl-3-(5-(1-methyl-1H-pyrazol-4-yl)benzo[d]thiazol-2-yl)-4,5,6,7-tetrahydrothieno[2,3-c]pyridin-2-yl)-3-((2-methoxyethyl)amino)propanamide] |
| < 300 |  | < 300 |  |  | COCCNCCC(=O)Nc1sc2c(c1-c1nc3cc(-c4cccnc4)ccc3s1)CC(C)NC2C (single isomer, unassigned) [Compound 525, N-(5,7-Dimethyl-3-(5-(pyridin-3-yl)benzo[d]thiazol-2-yl)-4,5,6,7-tetrahydrothieno[2,3-c]pyridin-2-yl)-3-((2-methoxyethyl)amino)propanamide] |
| < 300 | < 300 |  |  |  | COCCNC(=O)c1ccc2sc(-c3c(NC(=O)CCNC(C)C)sc4c3CCNC4)nc2c1 [Compound 323, 2-(2-(3-(Isopropylamino)propanamido)-4,5,6,7-tetrahydrothieno[2,3-c]pyridin-3-yl)-N-(2-methoxyethyl)benzo[d]thiazole-5-carboxamide] |
| 1000 to 10000 |  | < 300 |  |  | COCCNCCC(=O)Nc1sc2c(c1-c1nc3cc(F)ccc3s1)CC(C)NC2C (single isomer, unassigned) [Compound 547, N-(3-(5-Fluorobenzo[d]thiazol-2-yl)-5,7-dimethyl-4,5,6,7-tetrahydrothieno[2,3-c]pyridin-2-yl)-3-((2-methoxyethyl)amino)propanamide] |
| < 300 | < 300 |  |  |  | CC[C@@H](C)NCCC(=O)Nc1sc2c(c1-c1nc3cc(F)ccc3s1)CCNC2 [Compound 185, (R)-3-(sec-butylamino)-N-(3-(5-fluorobenzo[d]thiazol-2-yl)-4,5,6,7-tetrahydrothieno[2,3-c]pyridin-2-yl)propanamide] |
| < 300 | < 300 |  |  |  | COCCNCCC(=O)Nc1sc2c(c1-c1nc3c(C(F)(F)F)cccc3s1)CCNC2 [compound 611] |
| < 300 | < 300 |  |  |  | COCCNCCC(=O)Nc1sc2c(c1-c1nc3cc(-c4ccnc(F)c4)ccc3s1)CCNC2 [compound 458] |
| < 300 | < 300 |  |  |  | CC(C)NCCC(=O)Nc1sc2c(c1-c1nc3ccc(-c4ccncc4)cc3s1)CCNC2 [compound 192] |
| 300 to 1000 | < 300 |  |  |  | COCCNCCC(=O)Nc1sc2c(c1-c1nc3ccc(F)cc3s1)CCNC2 [Compound 318, N-(3-(6-Fluorobenzo[d]thiazol-2-yl)-4,5,6,7-tetrahydrothieno[2,3-c]pyridin-2-yl)-3-((2-methoxyethyl)amino)propanamide] |
| < 300 | < 300 |  |  |  | CC(C)NCCC(=O)Nc1sc2c(c1-c1nc3cc(-c4cnn(C)c4)ccc3s1)CCNC2 [compound 161] |
| < 300 | < 300 |  |  |  | O=C(CCNCc1c[nH]cn1)Nc1sc2c(c1-c1nc3ccccc3s1)CCNC2 [Compound 190, 3-(((1H-imidazol-4-yl)methyl)amino)-N-(3-(benzo[d]thiazol-2-yl)-4,5,6,7-tetrahydrothieno[2,3-c]pyridin-2-yl)propanamide] |
